According to ChEMBL document CHEMBL1201862, “PubChem BioAssay data set” (2004):
Calls of active or inactive are those of the source.

What was measured:
[1] = Trypanosoma cruzi growth suppression in host cells – NIH3T3 host cells, beta-gal luminescence, confirmation (AID 2044); format: functional, cell-based;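 also: intracellular parasites grown in NIH/3T3 mouse fibroblasts as host cells; luminescent beta-galactosidase reporter signal from transgenic T. cruzi replicating inside host cells; inhibitors lower the luminescence signal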
[2] = NIH3T3 cell viability loss – ATP luminescence, mouse fibroblasts, counter-screen, dose response (AID 2010); format: functional, cell-based;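 also: cells exposed to compound for about 90 hours before reading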
[3] = molecular target: T1, Neuropeptides B/W receptor type 1 (Homo sapiens, UniProt P48145); test: Fluorescence-based dose response cell-based high throughput screening assay to identify antagonists of the G-protein coupled receptor 7 (GPR7). [Related pubchem assays: 1952 (Screening assay (GPR7 antagonists).), 1880 (Summary AID.)]; format: functional
T1 sequence (P48145 whole entry): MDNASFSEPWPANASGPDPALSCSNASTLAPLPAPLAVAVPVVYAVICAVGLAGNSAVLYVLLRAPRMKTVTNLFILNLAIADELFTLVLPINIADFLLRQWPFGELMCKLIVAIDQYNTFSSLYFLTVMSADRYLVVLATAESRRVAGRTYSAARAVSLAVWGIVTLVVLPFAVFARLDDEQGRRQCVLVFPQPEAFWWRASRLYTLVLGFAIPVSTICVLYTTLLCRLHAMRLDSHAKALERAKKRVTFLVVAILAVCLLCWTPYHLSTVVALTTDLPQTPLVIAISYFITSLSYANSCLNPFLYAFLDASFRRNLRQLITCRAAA

[4] = molecular target: Melanin-concentrating hormone receptor 1 (Homo sapiens, UniProt Q99705); test: Fluorescence-based counterscreen for antagonists of the G-protein coupled receptor 7 (GPR7): cell-based high throughput dose response assay to identify antagonists of the melanin-concentrating hormone receptor 1 (MCHR1).; format: functional
Melanin-concentrating hormone receptor 1, sequence (Q99705 whole entry): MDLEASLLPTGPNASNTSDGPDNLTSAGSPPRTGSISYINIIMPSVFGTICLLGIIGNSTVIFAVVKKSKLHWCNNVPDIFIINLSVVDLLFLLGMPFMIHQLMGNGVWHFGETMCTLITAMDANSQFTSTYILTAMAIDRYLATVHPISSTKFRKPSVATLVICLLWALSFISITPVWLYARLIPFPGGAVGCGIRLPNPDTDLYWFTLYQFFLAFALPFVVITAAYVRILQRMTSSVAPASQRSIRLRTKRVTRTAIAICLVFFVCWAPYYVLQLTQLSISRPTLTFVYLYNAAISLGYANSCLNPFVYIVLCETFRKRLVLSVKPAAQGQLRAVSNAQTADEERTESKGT

[5] = molecular target: T2, Heat shock factor protein 1 (Mus musculus, UniProt P38532); test: enhancement of HSF1-driven luciferase signal – cell-based, NIH3T3, luminescence, dose retest, confirmation (AID 435004); format: functional;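 also: stress induced by proteasome inhibitor MG132 added 30 min after compound; luciferase reporter driven by HSF1 response element in NIH3T3 cells; actives raise luminescence as potentiators of the MG132 stress response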
T2 sequence (P38532 whole entry): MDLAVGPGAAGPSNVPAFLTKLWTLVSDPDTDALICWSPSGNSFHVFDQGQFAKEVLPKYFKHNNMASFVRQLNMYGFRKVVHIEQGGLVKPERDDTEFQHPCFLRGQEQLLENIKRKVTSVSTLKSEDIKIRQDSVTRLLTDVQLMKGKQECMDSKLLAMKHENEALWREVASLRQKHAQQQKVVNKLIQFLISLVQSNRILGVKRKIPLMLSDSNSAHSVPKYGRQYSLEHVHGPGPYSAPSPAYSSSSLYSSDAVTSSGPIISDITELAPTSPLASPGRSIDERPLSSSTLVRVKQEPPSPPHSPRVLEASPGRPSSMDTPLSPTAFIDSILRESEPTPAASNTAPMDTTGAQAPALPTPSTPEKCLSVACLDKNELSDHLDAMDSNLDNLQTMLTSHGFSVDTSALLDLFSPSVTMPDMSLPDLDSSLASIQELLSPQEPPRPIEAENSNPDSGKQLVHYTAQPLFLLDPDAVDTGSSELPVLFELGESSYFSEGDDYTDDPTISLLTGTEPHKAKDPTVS

Estrogen receptor beta [6] = molecular target: T3, Estrogen receptor beta (Homo sapiens, UniProt Q92731);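 also: recombinant ER-beta bound to coactivator SRC1 peptide in presence of estradiol agonist; inhibitors block coactivator peptide binding and lower the FRET signal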
T3 sequence (Q92731 whole entry): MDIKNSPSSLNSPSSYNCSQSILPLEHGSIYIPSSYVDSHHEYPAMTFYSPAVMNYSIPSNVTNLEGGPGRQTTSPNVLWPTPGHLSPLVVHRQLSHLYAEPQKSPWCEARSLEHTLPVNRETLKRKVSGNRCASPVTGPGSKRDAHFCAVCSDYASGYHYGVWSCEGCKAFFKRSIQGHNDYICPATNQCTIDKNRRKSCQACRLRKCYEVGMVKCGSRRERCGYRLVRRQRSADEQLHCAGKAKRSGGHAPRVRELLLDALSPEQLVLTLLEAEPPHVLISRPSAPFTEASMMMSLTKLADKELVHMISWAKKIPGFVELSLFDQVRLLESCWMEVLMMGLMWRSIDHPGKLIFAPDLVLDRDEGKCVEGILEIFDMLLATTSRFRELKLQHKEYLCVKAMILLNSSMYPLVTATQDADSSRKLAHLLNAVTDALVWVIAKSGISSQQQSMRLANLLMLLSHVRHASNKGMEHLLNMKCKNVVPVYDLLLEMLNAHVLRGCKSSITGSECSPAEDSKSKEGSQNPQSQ

Estrogen receptor beta [7] = molecular target: T3, Estrogen receptor beta; test: blockers of SRC-3 recruitment to ERβ – biochemical, ELISA, streptavidin-HRP readout, orthogonal assay, confirmation (AID 1060)
Mucolipin-3 = molecular target: T4, Mucolipin-3 (Homo sapiens, UniProt Q8TDD5); test: Dose response cell-based high-throughput screening assay for agonists of the transient receptor potential channel ML3 (TRPML3). [Related pubchem assays: 1526, 1424, 1448 ]; format: functional
T4 sequence (Q8TDD5 whole entry): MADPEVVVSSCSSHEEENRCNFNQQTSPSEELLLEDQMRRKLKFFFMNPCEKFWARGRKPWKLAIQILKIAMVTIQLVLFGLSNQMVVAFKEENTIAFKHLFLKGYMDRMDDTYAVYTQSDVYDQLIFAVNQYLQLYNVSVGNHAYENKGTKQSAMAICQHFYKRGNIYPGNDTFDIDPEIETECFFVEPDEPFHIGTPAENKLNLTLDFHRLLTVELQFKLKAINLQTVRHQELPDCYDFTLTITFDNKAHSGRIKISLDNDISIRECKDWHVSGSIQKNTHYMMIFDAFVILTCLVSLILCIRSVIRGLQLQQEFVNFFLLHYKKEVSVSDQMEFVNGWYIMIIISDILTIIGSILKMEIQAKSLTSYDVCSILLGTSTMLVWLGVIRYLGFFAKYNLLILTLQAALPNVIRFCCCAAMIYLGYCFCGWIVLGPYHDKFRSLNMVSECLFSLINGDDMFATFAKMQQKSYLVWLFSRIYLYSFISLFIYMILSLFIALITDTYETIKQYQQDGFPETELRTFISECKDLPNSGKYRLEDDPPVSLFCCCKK

Ion channel NompC = Ion channel NompC (Danio rerio, UniProt Q7T1G6); test: Fluorescence counterscreen assay for TRPML3 agonists: dose response cell-based high-throughput screening assay to identify agonists of the transient receptor potential channel N1 (TRPN1). [Related pubchem assays: 1526, 1424, 1448 ]; format: functional
Vero = test: host cell viability loss, Vero E6 – synthesized analogs, cytotoxicity control for West Nile virus antiviral project, SAR follow-up (AID 2244); format: functional; conditions: Chlorocebus sabaeus
[8] = molecular target: Acyl-homoserine lactone acylase PvdQ (Pseudomonas aeruginosa (strain LESB58), UniProt Q9I194); test: PvdQ acylase enzyme activity blockers – biochemical, fluorescence, plate reader and imaging, cherry-picks, dose response (AID 493231)
Acyl-homoserine lactone acylase PvdQ, sequence (Q9I194 24-193 limits assumed): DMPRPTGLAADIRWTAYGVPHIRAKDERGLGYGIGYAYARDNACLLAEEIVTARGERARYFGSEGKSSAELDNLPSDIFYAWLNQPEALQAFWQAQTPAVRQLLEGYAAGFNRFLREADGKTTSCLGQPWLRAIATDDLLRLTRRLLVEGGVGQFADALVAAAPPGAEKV
Acyl-homoserine lactone acylase PvdQ, sequence (Q9I194 217-762 limits assumed): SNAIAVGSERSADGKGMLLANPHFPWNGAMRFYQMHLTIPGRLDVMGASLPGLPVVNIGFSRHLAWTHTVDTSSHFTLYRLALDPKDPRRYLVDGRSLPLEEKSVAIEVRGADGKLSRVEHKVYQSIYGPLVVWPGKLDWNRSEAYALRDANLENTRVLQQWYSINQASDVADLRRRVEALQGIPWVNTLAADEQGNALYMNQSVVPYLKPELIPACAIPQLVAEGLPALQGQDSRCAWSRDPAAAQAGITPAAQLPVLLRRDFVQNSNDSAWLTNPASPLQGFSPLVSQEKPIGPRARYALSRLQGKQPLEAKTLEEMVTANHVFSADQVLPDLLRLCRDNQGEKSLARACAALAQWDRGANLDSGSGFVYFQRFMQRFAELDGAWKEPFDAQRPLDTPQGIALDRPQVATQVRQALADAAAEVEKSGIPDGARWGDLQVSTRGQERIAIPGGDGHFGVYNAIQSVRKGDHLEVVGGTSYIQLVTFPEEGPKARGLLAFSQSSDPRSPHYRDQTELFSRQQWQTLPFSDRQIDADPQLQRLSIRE

Fatty acid synthase [9] = molecular target: T5, Fatty acid synthase (Homo sapiens, UniProt P49327); test: inhibition of human FAS-TE enzyme activity – biochemical, endpoint fluorescence intensity, uHTS hits, dose response (AID 624327); format: functional;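 also: fluorescence from hydrolysis of an O-methyl fluorescein acyl ester substrate by the enzyme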
T5 sequence (P49327 whole entry): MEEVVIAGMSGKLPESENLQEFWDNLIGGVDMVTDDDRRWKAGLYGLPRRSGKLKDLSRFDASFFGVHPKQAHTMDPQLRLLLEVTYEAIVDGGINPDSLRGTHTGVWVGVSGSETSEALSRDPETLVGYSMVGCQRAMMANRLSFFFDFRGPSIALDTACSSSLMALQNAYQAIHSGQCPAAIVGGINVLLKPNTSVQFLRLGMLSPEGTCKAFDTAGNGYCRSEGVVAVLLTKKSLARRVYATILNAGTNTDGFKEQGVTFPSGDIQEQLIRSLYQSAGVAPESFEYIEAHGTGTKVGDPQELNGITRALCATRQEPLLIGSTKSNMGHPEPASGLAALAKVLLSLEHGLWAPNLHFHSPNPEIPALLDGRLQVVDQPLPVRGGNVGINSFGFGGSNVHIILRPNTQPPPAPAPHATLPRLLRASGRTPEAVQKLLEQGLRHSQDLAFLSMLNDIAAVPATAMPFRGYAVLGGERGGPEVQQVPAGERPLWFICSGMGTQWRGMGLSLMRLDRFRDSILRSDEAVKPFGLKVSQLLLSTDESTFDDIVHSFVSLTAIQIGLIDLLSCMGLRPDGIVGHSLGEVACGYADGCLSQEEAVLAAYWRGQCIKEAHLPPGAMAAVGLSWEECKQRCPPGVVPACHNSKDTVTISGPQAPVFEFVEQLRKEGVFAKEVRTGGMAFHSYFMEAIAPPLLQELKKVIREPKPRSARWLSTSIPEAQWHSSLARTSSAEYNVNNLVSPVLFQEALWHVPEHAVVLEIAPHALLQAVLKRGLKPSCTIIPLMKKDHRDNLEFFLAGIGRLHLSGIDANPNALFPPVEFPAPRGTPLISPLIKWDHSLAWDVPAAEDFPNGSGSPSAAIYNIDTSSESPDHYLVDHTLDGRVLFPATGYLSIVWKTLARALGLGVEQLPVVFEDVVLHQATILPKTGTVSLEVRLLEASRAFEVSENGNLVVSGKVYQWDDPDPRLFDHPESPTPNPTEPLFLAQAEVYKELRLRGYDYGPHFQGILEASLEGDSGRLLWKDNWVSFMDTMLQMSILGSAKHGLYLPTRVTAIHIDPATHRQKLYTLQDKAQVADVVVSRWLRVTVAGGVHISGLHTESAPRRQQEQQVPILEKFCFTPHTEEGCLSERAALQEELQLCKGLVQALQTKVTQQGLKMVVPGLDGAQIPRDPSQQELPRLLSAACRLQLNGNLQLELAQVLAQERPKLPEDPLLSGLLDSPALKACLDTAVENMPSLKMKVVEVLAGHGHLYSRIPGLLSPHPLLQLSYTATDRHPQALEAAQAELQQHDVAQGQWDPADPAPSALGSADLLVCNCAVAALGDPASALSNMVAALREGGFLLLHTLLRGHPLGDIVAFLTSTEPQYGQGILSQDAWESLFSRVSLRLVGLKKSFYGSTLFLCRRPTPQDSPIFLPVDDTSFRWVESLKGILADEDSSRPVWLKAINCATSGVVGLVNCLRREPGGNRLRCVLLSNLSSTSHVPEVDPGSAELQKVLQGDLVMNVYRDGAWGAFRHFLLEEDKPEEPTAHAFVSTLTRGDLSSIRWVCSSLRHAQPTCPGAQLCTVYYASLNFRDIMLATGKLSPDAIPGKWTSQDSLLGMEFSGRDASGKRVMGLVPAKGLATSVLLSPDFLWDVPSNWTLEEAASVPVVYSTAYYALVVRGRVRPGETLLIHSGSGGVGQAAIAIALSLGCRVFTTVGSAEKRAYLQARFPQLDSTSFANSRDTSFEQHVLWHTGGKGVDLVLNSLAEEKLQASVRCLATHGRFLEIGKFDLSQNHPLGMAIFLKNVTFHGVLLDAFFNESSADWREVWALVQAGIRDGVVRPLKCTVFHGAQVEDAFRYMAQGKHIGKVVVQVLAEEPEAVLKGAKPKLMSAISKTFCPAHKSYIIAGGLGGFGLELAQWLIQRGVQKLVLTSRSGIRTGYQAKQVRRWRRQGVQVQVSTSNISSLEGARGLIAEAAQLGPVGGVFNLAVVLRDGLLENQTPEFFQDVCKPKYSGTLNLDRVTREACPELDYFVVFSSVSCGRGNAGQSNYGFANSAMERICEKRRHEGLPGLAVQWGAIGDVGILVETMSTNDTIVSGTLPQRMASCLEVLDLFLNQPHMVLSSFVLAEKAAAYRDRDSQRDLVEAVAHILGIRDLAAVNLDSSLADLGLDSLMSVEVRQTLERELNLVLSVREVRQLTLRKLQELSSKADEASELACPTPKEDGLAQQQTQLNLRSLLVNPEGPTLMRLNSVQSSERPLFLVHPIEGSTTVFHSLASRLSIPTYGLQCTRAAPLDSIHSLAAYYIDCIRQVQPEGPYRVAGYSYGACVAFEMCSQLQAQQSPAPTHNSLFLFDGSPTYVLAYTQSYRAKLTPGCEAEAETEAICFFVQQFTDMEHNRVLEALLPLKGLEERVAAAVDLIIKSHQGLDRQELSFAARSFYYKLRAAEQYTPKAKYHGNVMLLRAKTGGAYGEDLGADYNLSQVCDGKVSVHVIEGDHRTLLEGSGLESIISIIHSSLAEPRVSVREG

Fatty acid synthase [10] = molecular target: T5, Fatty acid synthase; test: inhibition of human FAS-TE enzyme activity – biochemical, kinetic fluorescence intensity, dose response (AID 624326); format: functional;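 also: rate of fluorescence rise from hydrolysis of a fluorogenic O-methyl fluorescein ester substrate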
X-box-binding protein 1 = X-box-binding protein 1 (Homo sapiens, UniProt P17861); format: functional, Cricetulus griseus;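 also: confirmatory dose-response counter-screen serving a CHOP assay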
X-box-binding protein 1, sequence (P17861 whole entry): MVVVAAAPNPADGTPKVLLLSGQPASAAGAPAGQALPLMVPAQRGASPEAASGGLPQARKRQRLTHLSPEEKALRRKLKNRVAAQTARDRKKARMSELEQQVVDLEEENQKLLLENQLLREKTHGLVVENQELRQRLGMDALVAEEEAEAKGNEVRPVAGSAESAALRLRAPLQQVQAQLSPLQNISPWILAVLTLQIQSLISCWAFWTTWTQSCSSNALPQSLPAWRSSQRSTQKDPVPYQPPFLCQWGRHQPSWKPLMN

[11] = molecular target: Serine/threonine-protein phosphatase PP1-alpha catalytic subunit (Homo sapiens, UniProt P62136); test: inhibition of protein phosphatase 1 activity – biochemical, fluorescence, dose response (AID 2394)
Serine/threonine-protein phosphatase PP1-alpha catalytic subunit, sequence (P62136 whole entry): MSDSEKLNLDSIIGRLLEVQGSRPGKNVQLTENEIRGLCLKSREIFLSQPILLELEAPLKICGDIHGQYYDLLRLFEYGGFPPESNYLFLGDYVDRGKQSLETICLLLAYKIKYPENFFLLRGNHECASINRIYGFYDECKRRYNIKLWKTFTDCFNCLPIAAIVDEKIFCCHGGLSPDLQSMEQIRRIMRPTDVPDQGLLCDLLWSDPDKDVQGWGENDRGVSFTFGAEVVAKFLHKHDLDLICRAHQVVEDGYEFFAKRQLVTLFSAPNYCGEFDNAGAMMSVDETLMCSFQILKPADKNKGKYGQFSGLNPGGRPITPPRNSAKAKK

Bcl-2-like protein 10 = molecular target: T6, Bcl-2-like protein 10 (Homo sapiens, UniProt Q9HD36); test: Bcl-B/TR3 peptide binding disruption – biochemical, fluorescence polarization, FITC-TR3 peptide, selectivity assay for Bfl-1 inhibitor project, primary screen (AID 748);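 also: fluorescence polarization from a fluorescein-labelled TR3 peptide binding purified Bcl-B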
T6 sequence (Q9HD36 whole entry): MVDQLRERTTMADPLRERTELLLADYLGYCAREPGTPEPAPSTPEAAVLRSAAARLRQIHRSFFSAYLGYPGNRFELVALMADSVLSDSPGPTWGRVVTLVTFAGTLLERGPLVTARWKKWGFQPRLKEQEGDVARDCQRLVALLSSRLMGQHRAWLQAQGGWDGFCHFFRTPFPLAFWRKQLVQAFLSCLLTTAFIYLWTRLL

[12] = molecular target: T7, Serine/threonine-protein phosphatase (Homo sapiens, UniProt Q9BPW0); test: inhibition of protein phosphatase 5 activity – biochemical, fluorescence, dose response (AID 2395)
T7 sequence (Q9BPW0 whole entry): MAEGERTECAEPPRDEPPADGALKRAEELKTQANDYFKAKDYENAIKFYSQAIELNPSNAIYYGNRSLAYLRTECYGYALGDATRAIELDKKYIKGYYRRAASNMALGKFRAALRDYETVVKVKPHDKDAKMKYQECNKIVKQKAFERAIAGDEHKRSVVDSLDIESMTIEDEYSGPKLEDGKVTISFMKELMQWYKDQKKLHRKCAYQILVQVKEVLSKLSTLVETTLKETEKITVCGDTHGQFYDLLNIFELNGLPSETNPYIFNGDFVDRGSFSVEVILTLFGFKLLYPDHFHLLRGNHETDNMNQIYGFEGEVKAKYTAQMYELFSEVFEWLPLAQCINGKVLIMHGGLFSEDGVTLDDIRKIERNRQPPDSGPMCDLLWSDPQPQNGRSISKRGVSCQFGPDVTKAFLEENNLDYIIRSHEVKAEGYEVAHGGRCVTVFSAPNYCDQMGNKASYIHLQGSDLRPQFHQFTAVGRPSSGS

[13] = molecular target: T8, Apoptotic protease-activating factor 1 (Homo sapiens, UniProt O14727); format: functional
T8 sequence (O14727 whole entry): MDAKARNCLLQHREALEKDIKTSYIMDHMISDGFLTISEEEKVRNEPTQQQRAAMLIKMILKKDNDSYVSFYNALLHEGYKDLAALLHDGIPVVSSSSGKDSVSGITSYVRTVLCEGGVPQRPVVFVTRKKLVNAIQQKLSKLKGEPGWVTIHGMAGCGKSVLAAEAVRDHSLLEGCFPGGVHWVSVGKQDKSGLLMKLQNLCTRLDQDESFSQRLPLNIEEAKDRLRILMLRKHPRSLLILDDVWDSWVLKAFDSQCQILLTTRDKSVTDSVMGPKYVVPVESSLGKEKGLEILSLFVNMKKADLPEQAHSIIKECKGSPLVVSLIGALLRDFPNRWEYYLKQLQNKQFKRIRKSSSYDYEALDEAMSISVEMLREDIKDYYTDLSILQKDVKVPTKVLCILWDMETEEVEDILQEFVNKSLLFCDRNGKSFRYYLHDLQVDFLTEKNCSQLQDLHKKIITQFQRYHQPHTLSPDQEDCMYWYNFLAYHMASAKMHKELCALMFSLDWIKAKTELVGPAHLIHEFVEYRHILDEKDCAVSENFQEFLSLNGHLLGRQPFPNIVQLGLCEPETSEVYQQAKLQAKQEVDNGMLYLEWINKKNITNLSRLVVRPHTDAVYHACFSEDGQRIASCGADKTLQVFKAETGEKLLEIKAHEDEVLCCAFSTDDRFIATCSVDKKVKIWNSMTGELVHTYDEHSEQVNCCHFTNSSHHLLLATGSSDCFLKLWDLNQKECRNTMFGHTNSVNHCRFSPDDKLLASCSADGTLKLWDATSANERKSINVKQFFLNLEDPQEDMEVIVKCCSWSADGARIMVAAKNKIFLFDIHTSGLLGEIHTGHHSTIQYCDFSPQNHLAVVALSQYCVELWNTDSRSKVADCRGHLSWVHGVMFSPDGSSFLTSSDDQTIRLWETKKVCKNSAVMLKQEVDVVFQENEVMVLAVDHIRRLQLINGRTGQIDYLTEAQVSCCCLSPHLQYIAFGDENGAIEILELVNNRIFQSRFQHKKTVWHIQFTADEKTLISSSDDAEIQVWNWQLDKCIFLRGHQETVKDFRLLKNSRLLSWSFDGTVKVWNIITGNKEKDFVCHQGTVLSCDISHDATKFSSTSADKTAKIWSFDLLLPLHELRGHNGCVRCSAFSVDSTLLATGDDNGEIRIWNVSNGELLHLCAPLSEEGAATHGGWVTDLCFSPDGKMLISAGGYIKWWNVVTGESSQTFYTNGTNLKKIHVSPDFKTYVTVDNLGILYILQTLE

Genome polyprotein = Genome polyprotein (dengue virus type 2, UniProt P29990); test: flavivirus cap methylation enzyme inhibition – biochemical, confirmation dose response, primary screen (AID 588689); format: functional

SMILES: O=C(CNC1CCN(Cc2ccccc2)CC1)Nc1ccc(S(=O)(=O)N2CCCCC2)cc1
- EC50 [1]: < 0.1 µM (active)
- EC50 [2]: > 30 µM (not active)
- EC50 (cells): 0.019 µM (active)

SMILES: Clc1ccc(-n2c(SC/C=C/c3ccccc3)nnc2-c2cccnc2)cc1
- IC50 [3]: 16.9 µM (not active)
- IC50 [4]: 8.43 µM (active)
- EC50 [5]: 46.1 µM (active)

SMILES: Oc1c2c(nc3ccccc13)C(=C1CCCC1)CC2
- IC50 (Estrogen receptor beta [6]): 1.69 µM (active)
- IC50 (Estrogen receptor beta [7]): > 109 µM (not active)

SMILES: Cc1ccc(SCCOCCN2CCc3ccccc3C2)cc1
- EC50 [1]: < 0.1 µM (active)
- EC50 [2]: > 60 µM (not active)
- EC50 (cells): 0.037 µM (active)

SMILES: O=C1CCCN1CC#CCN1CCCC1 [OXOTREMORINE]
- EC50 (Mucolipin-3): > 29.9 µM (not active)
- EC50 (Ion channel NompC): > 29.9 µM (not active)

SMILES: COc1ccc(-c2csc(N(CCCN(C)C)C(=O)c3ccccc3F)n2)cc1
- CC50 (Vero): > 80 µM (active)

SMILES: O=C(NC1CCCCCCC1)c1cc([N+](=O)[O-])ccc1Cl
- AC50 [8]: 40.8 µM (active)
- IC50 (Fatty acid synthase [9]): 9.4 µM (active)
- IC50 (Fatty acid synthase [10]): 7.35 µM (active)

SMILES: COC(=O)c1noc(-c2ccc(OC)cc2)n1
- AC50 [8]: > 100 µM (inactive)

SMILES: Cc1ccc(OCC(=O)N/N=C/c2c[nH]nc2-c2ccc(Cl)c(Cl)c2)cc1
- Absolute IC50 (XBP1) (X-box-binding protein 1): 10 µM

SMILES: CC(C)C(=O)N1CCC(CNC=C2C(=O)N(C3CCCCC3)C(=O)N(C3CCCCC3)C2=O)CC1
- Absolute IC50 (XBP1) (X-box-binding protein 1): 10 µM

SMILES: O=C(COc1ccc([N+](=O)[O-])cc1)NCCC1=CCCCC1
- IC50 [3]: > 14.6 µM (not active)
- IC50 [4]: 22.2 µM (not active)
- IC50 (Fatty acid synthase [9]): 8.16 µM (active)
- IC50 (Fatty acid synthase [10]): 10.1 µM (active)

SMILES: CCOC(=O)c1cnn(-c2nc(SC)nc3sc4c(c23)CCC4)c1N
- IC50 (Estrogen receptor beta [6]): > 50 µM (not active)
- IC50 (Estrogen receptor beta [7]): 0.069 µM (not active)

SMILES: Nc1cc2nsnc2cc1Br
- IC50 [11]: > 67 µM (not active)
- IC50 (Bcl-2-like protein 10): 13.3 µM (active)
- IC50 [12]: > 2.48 µM (active)
- IC50 [13]: 3.21 µM (active)
- IC50 (Genome polyprotein): 48.7 µM (active)
